The nature of data set [1]: refractive index (Na D-line) (dimensionless). The conditions noted are these: 298.15 K; 101.33 kPa; Liquid; Standard Abbe refractometry.
The conditions of data set [2]: 298.15 K; 101.33 kPa; Liquid; Vibrating tube method.

The source of these data is the NIST ThermoML archive (doi:10.1016/j.fluid.2011.01.021).

Molecules are shown by their SMILES. Numbers after ± are expanded uncertainties.

The refractive index is the speed of light in vacuum divided by its phase velocity in the sample. As a reminder, the mass density is mass per unit of volume. Take `CCOS(=O)(=O)[O-].CCn1cc[n+](C)c1` [1-ethyl-3-methylimidazolium ethyl sulfate]: the refractive index in data set [1] is listed as 1.4791 ± 0.0007. Further, the mass density in data set [2] is given as 1237.23 ± 0.43 kg/m3.
